# Patent EP0545911B1, “Lanthionine-containing bacteriocin compositions for use as bactericides” (APPLIED MICROBIOLOGY, INC., priority 1988, dated 1996)
# Columns and labels:
# Assay type in all cases: cell-based
# Streptococcus agalactiae = test: Bactericidal activity (percent bacterial survival, CFU count) in milk at 37°C; settings: for % survival at 2hr: Monolaurin 0 %
# Method: (§1) All tests in the following examples were performed at 37°C. The efficacy of the enhanced broad range bactericides was determined by assaying bactericidal activity as measured by the percent bacterial survival after treatment with the bactericide. Generally, after incubation of a 10^7 cell per ml suspension of target species with the novel bactericide for specified lengths of time, bacteria were collected by centrifugation for 2 minutes. The bacterial pellet was washed free of the bactericide with a rescue buffer, termed herein Phage buffer (50mM Tris-HCl buffer pH 7.8, 1mM MgSO4, 4mM CaCl2, 0.1 M NaCl, and 0.1% gelatin), resuspended and serially diluted into Phage buffer, and […] of the suspended bacteria were spread on nutrient agar plates. Surviving bacteria were determined by scoring colony forming units (CFU) after incubation for 24-48 hours at 37°C. An effective bactericide according to this invention is one which allows less than 0.1% of the initial viable count of the bacteria to survive.
# Thus, when the application of nisin is limited by its available activity, a bactericide comprising nisin with a surfactant can be expected to be more useful.
# Listeria monocytogenes [1] = test: as above
# Method: as §1
# Listeria monocytogenes [2] = settings: monooleate by itself; milk
# Method: as §1
molecule,measurement,setting,value
"CCCCCCCCCCCC(=O)OCC(O)CO (stereo not drawn) [Monolaurin, monolaurin]",viability at 0.01 %,"Streptococcus agalactiae; Streptococcus agalactiae, 2 h, Nisin 0 µg/ml, Monolaurin 0.01 %, 37°C, initial viable counts 6.0 x 10^7 cfu/ml",100%
same,viability at 0.1 %,"Streptococcus agalactiae; Streptococcus agalactiae, 2 h, Nisin 0 µg/ml, Monolaurin 0.1 %, 37°C, initial viable counts 6.0 x 10^7 cfu/ml",4.5%
same,bactericidal activity towards Streptococcus agalactiae (in words),Streptococcus agalactiae; monolaurin alone at concentrations up to 0.1%,little significant bactericidal activity
"Nisin (ITSISLCTPGCKTGALMGCNMKTATCHCSIHVSK; not fully specified; Lantibiotic nisin-A; UniProt P13068 24-57, looked up) [polypeptide with antimicrobial properties produced by strains of Streptococcus lactis; lanthionine-containing peptide bacteriocin, known food preservative]",% survival at 2hr,"Listeria monocytogenes [1]; Nisin 100 µg/ml, Monooleate 0 %, milk, 37°C, initial viable count 5.0 x 10^7 cfu/ml",0.56%
same,available nisin activity towards L. monocytogenes (in words),"Listeria monocytogenes [1]; nisin alone, complex medium like milk",restricted
same,% survival at 2hr,"Streptococcus agalactiae; Nisin 0.02 µg/ml, 37°C, initial viable counts 6.0 x 10^7 cfu/ml",100%
same,% survival at 2hr,"Streptococcus agalactiae; Nisin 0.2 µg/ml, 37°C, initial viable counts 6.0 x 10^7 cfu/ml",2.2%
same,bactericidal activity in milk (in words),Streptococcus agalactiae; nisin alone at concentrations up to 0.2 µg.ml,does not exhibit significant bactericidal activity
glyceride monooleate,bactericidal activity towards L. monocytogenes (in words),Listeria monocytogenes [2],no bactericidal activity
